According to patent publication US20160213635A1, “COMPOSITIONS USEFUL IN THE PREVENTION OR TREATMENT OF SKIN CANCER” (GIULIANI S.P.A., priority 2013, published 2016):

System: NHKs cells
Experiment: Western Blot time course of p53, phospho-p53 and GADD45a after UVB irradiation and subsequent treatment with G01
Assay type: cell-based, human
Settings: post-treatment 90 μM
Method: The NHKs cells were plated in the specific culture medium and maintained in culture for 24±2 h to allow adhesion to the plate. Subsequently, the plates identified as +UVB and +G01/UVB post were exposed, in the irradiation medium, to a UVB dose of 25. mJ/cm^2. The irradiation medium was then replaced with the culture medium containing the compound of the invention G01, in a concentration of 90 μM. Post-treatment times of 1-3-6-24 h were selected, after which the plates were processed for Western Blot protein determination. The protein expression of p53, phospho-p53, and GADD45a after UVB irradiation and post-treatment with the compound of the invention G01 was compared with the expression in the control cells (Ctr).

[1] = UVB 25 mJ/cm^2, shorter times of 1-3-6-24 h

C/C=C/C=C/C=C/C(=O)O [G01, 2,4,6-trans-octatrienoic acid]
expression of the markers of DNA damage (24 h after UVB irradiation 25 mJ/cm^2): decrease in the expression | levels of GADD45a [1]: acceleration of the increase | levels of p53 [1]: acceleration of the increase | levels of phospho-p53 [1]: acceleration of the increase
